The assay concerns Plasmodium berghei. Kind of assay: Luciferase/luciferin-expressing antifolate-resistant parasites were used to infect a culture of HepG2 cells that were pre-incubated with compounds. Infected hepatocytes emit light due to the luciferase reaction. Assay results are presented as the percent inhibition of light emission compared to control. […]. In kind it is functional. Particulars: sporozoite; for IC90: read-out: LUCIFERASE INFECTION ASSAY - IC90.

Setting [1] is: read-out: LUCIFERASE INFECTION ASSAY - IC50.

SMILES strings stand for the structures. Some results are limits rather than exact numbers.

A word on the IC50: it is the concentration needed to halve the response being measured. For orientation: IC90 means the concentration at which the effect reaches the 90% level.

As to `COc1ccc(C2CC(c3ccccc3)=Nc3ccccc3S2)cc1` (configuration not stated), the IC90 is more than 9.55 µM. In addition, the IC50 (PBLUC_HILL_SLOPE 6.73, PBLUC_R_SQUARED 0.0739, read-out: LUCIFERASE INFECTION ASSAY - IC50) was more than 9.55 µM.
Turning to `COc1ccc(Nc2ccn3ncc(-c4ccc(OC)c(OC)c4)c3n2)cn1`, the IC90 worked out at 1.73 µM. The IC50 (HEPG2TOX_HILL_SLOPE 1.44, HEPG2TOX_R_SQUARED 0.951, PBLUC_HILL_SLOPE 2.71, PBLUC_R_SQUARED 0.798, read-out: LUCIFERASE INFECTION ASSAY - IC50) amounted to 0.768 µM.
As to `COc1ccc2nc(C)cc(N3CCc4c(sc(N)c4C#N)C3)c2c1`, the IC90 was more than 10 µM. Further, the concentration for half-maximal inhibition (IC50) under setting [1] was more than 10 µM.
Consider `COc1ccc(C(C)C)cc1-c1cc(N2CCCC2CO)n2nccc2n1` (configuration not stated), for which the IC90 was 6.95 µM. Besides, the IC50 (HEPG2TOX_HILL_SLOPE 1.35, HEPG2TOX_R_SQUARED 0.737, PBLUC_HILL_SLOPE 1.83, PBLUC_R_SQUARED 0.512, read-out: LUCIFERASE INFECTION ASSAY - IC50) stood at 2.09 µM.
Regarding `COc1ccc(C(=O)N(c2nc3ccccc3s2)c2c(C)cccc2C)cc1`, the IC90 is more than 10 µM. The concentration for half-maximal inhibition (IC50) (HEPG2TOX_HILL_SLOPE 1.69, HEPG2TOX_R_SQUARED 0.759, PBLUC_HILL_SLOPE 12.9, PBLUC_R_SQUARED 0.198, read-out: LUCIFERASE INFECTION ASSAY - IC50) amounted to 9.04 µM.
For `CCOC(=O)c1c(S(=O)(=O)Nc2cccc(C(F)(F)F)c2)c(-c2ccccc2)n(-c2ccccc2)c1C`, the IC90 was more than 6.24 µM. In addition, the IC50 (FFLUC_HILL_SLOPE 40.4, FFLUC_R_SQUARED 0.424, read-out: LUCIFERASE INFECTION ASSAY - IC50) is more than 6.24 µM.
With `Cc1onc(-c2c(Cl)cccc2Cl)c1C(=O)Nc1ccccc1SCc1noc(-c2cccs2)n1`, the IC90 was more than 6.07 µM. The IC50 (FFLUC_HILL_SLOPE 4.47, FFLUC_R_SQUARED 0.309, read-out: LUCIFERASE INFECTION ASSAY - IC50) was more than 6.07 µM.
With `Cc1[nH]ncc1CCCNc1nc(-c2ccsc2)nc2ccccc12`, the IC90 is more than 10 µM. Further, the IC50 (PBLUC_HILL_SLOPE 1.72, 3.12, PBLUC_R_SQUARED 0.159, 0.360, read-out: LUCIFERASE INFECTION ASSAY - IC50) was found to be 5.35 µM.
Turning to `N#Cc1cccc(Nc2nc(C(F)(F)F)nc3ccccc23)c1`, the IC90 was more than 10 µM. Also, the IC50 (PBLUC_HILL_SLOPE 4.2, PBLUC_R_SQUARED 0.258, read-out: LUCIFERASE INFECTION ASSAY - IC50) was 8.32 µM.
`Cc1cc(C)n(CC(=O)n2cc(C(=O)c3cc(F)ccc3O)cn2)n1`: the IC90 was more than 10 µM. Also, under setting [1], the IC50 is more than 10 µM.
On to `Cc1ccccc1OCCCn1c(CCCNC(=O)c2ccco2)nc2ccccc21`, for which the IC90 is more than 10 µM. Also, the IC50 under setting [1] is more than 10 µM.
Turning to `O=[N+]([O-])c1ccc(C(O)CNc2ccccc2S(=O)(=O)C(F)(F)F)cc1` (configuration not stated), the IC90 was found to be 1.21 µM. Further, the IC50 (HEPG2TOX_HILL_SLOPE 1.62, HEPG2TOX_R_SQUARED 0.763, PBLUC_HILL_SLOPE 5.41, PBLUC_R_SQUARED 0.533, read-out: LUCIFERASE INFECTION ASSAY - IC50) turned out to be 0.807 µM.
For the compound `CC(=O)Nc1ncc2c(Cl)cccc2n1`, the IC90 is more than 14.9 µM. The IC50 (HEPG2TOX_HILL_SLOPE 2.36, HEPG2TOX_R_SQUARED 0.885, PBLUC_HILL_SLOPE 2.93, PBLUC_R_SQUARED 0.162, read-out: LUCIFERASE INFECTION ASSAY - IC50) stood at 7.84 µM.
As to `COc1cc(NC(=O)CSc2nc(N)c3c4c(sc3n2)CCCC4)c(C)cc1[N+](=O)[O-]`, the IC90 is more than 10 µM. Besides, the IC50 under setting [1] was determined as 3.53 µM.
On to `C1=C(c2c[nH]c3ncccc23)CCN(c2ncnc3n[nH]cc23)C1`, for which the IC90 is more than 10 µM. The IC50 (HEPG2TOX_HILL_SLOPE 0.924, HEPG2TOX_R_SQUARED 0.995, PBLUC_HILL_SLOPE 2.5, PBLUC_R_SQUARED 0.123, read-out: LUCIFERASE INFECTION ASSAY - IC50) turned out to be 7.5 µM.
In the case of `O=C(Nc1ccc(N2CCCC2)cn1)c1cccc(Cl)c1`, the IC90 was 0.145 µM. Moreover, the IC50 (FFLUC_HILL_SLOPE 1.87, FFLUC_R_SQUARED 0.554, HEPG2TOX_HILL_SLOPE 1.22, HEPG2TOX_R_SQUARED 0.956, PBLUC_HILL_SLOPE 1.63, PBLUC_R_SQUARED 0.915, read-out: LUCIFERASE INFECTION ASSAY - IC50) came out at 0.0377 µM.
In the case of `COc1cccc(NC(=O)c2csc(C(O)c3cccc(C(F)(F)F)c3)n2)c1` (configuration not stated), the 90% effect concentration (IC90) is more than 10 µM. Moreover, under setting [1], the IC50 is more than 10 µM.
As for `Cc1ccc2nc(NC(=O)c3c(F)cccc3F)c(C(=O)NC3CCCC3)n2c1`, the concentration for an effect of 90% (IC90) was determined as 8.17 µM. In addition, the IC50 (HEPG2TOX_HILL_SLOPE 0.446, HEPG2TOX_R_SQUARED 0.792, PBLUC_HILL_SLOPE 1.53, PBLUC_R_SQUARED 0.752, read-out: LUCIFERASE INFECTION ASSAY - IC50) stood at 1.95 µM.
As to `CSc1nccc(-c2sc3scc(C)c3c2C)n1`, the IC90 was more than 11.3 µM. Moreover, under setting [1], the IC50 was more than 11.3 µM.
Turning to `Cc1ccc(Cl)cc1N1CCN(C(=O)NCc2ccco2)CC1`, the IC90 is more than 10 µM. For the same compound, the IC50 (HEPG2TOX_HILL_SLOPE 1.45, HEPG2TOX_R_SQUARED 0.763, PBLUC_HILL_SLOPE 1.12, PBLUC_R_SQUARED 0.27, read-out: LUCIFERASE INFECTION ASSAY - IC50) was determined as 5.99 µM.
For `CN1CCN(C(=O)c2cccc(-c3cnc4cnc(-c5ccccc5Oc5ccccc5)cn34)c2)CC1`, the IC90 was more than 6.74 µM. Further, the IC50 (PBLUC_HILL_SLOPE 3.72, PBLUC_R_SQUARED 0.499, read-out: LUCIFERASE INFECTION ASSAY - IC50) came out at 3.93 µM.
Consider `Clc1ccc2c(NCCCNc3ccccn3)ncnc2c1`, for which the IC90 is more than 10 µM. The IC50 under setting [1] was more than 10 µM.
Turning to `CC(C)n1c(Sc2ncc([N+](=O)[O-])s2)nc2cc(C(F)(F)F)ccc21`, the IC90 is 6.15 µM. Also, the IC50 (FFLUC_HILL_SLOPE 0.818, FFLUC_R_SQUARED 0.623, HEPG2TOX_HILL_SLOPE 9.88, HEPG2TOX_R_SQUARED 0.799, PBLUC_HILL_SLOPE 37.4, PBLUC_R_SQUARED 0.0575, read-out: LUCIFERASE INFECTION ASSAY - IC50) was 5.8 µM.
For the compound `CSc1nc2c3c(sc2c2nnc(SCCN(C)C)n12)CCCC3`, the IC90 was more than 8.69 µM. For the same compound, for the setting “PBLUC_HILL_SLOPE 2.05, PBLUC_R_SQUARED 0.263, read-out: LUCIFERASE INFECTION ASSAY - IC50”, the IC50 was 5.45 µM.
In the case of `O=C(c1cc(F)cc(F)c1)N1[C@@H]2CC[C@@H](C2)[C@H]1c1nc2c(OCCC3CCCCC3)cccc2[nH]1`, the IC90 was more than 10 µM. Besides, under “FFLUC_HILL_SLOPE 146, FFLUC_R_SQUARED 0.488, HEPG2TOX_HILL_SLOPE 10.5, HEPG2TOX_R_SQUARED 0.576, PBLUC_HILL_SLOPE 12.2, PBLUC_R_SQUARED 0.352, read-out: LUCIFERASE INFECTION ASSAY - IC50”, the IC50 came out at 9.64 µM.
As to `O=C(NCC12CC3CC(CC(C3)C1)C2)c1ccc2ccccc2c1`, the IC90 was more than 10 µM. In addition, the IC50 under setting [1] was more than 10 µM.
Take `Cc1c(OCc2ccc([N+](=O)[O-])cc2)ccc2c1OC(C)(C)C=C2`: the IC90 was 6.1 µM. The IC50 under setting [1] stood at 0.667 µM.
With `O=C(Nc1cccc(NC(=O)c2ccccc2Nc2ccccc2)c1)c1ccco1`, the IC90 is more than 10 µM. Moreover, where the note is “PBLUC_HILL_SLOPE 2.3, PBLUC_R_SQUARED 0.121, read-out: LUCIFERASE INFECTION ASSAY - IC50”, the IC50 is 5.43 µM.
In the case of `Cn1cc(CN2CCc3c(c(C(=O)NCc4nccs4)nn3Cc3ccccc3)C2)c2ccccc21`, the IC90 is 5.73 µM. Besides, the IC50 (HEPG2TOX_HILL_SLOPE 6.66, HEPG2TOX_R_SQUARED 0.254, PBLUC_HILL_SLOPE 4.38, PBLUC_R_SQUARED 0.819, read-out: LUCIFERASE INFECTION ASSAY - IC50) came to 3.47 µM.
`CC(C)(C)c1ccc(-c2cnc3cnc(-c4cccc(C(N)=O)c4)cn23)cc1`: the 90% effect concentration (IC90) is more than 8.91 µM. Moreover, the IC50 (PBLUC_HILL_SLOPE 3.04, PBLUC_R_SQUARED 0.545, read-out: LUCIFERASE INFECTION ASSAY - IC50) is 6.86 µM.
As to `CCC(C)(C)C1CCC2(CC1)NC(N)=Nc1nc3ccccc3n12` (configuration not stated), the IC90 was 3.31 µM. Under “PBLUC_HILL_SLOPE 13.4, PBLUC_R_SQUARED 0.322, read-out: LUCIFERASE INFECTION ASSAY - IC50”, the IC50 came out at 2.81 µM.
For `Cc1c(C(=O)OCc2coc(-c3cccs3)n2)sc2nc3n(c(=O)c12)CCC3`, the IC90 was 7.63 µM. Also, the 50% inhibitory concentration (IC50) (PBLUC_HILL_SLOPE 4.64, PBLUC_R_SQUARED 0.43, read-out: LUCIFERASE INFECTION ASSAY - IC50) came to 4.75 µM.
Consider `CN(C)CCCOc1ccc(-c2nnc3ccc(-c4cccc(OC(F)(F)F)c4)cn23)cc1`, for which the IC90 is more than 10 µM. Besides, the IC50 (PBLUC_HILL_SLOPE 3.54, PBLUC_R_SQUARED 0.437, read-out: LUCIFERASE INFECTION ASSAY - IC50) came out at 7.74 µM.
As for `O=C(CCc1cccnc1)Nc1nc(-c2ccc3c(c2)OCCO3)cs1`, the IC90 was more than 10 µM. Further, under setting [1], the IC50 is more than 10 µM.
Regarding `O=C(/C=C/c1ccc(-n2nncc2-c2ccccc2)cc1)c1ccccc1`, the IC90 was more than 10 µM. Also, the IC50 (HEPG2TOX_HILL_SLOPE 8.1, HEPG2TOX_R_SQUARED 0.474, PBLUC_HILL_SLOPE 4.46, PBLUC_R_SQUARED 0.811, read-out: LUCIFERASE INFECTION ASSAY - IC50) was found to be 6.74 µM.
For the compound `CCN(CC)CCSc1nc(-c2ccc(C)cc2)nc2c1COC(C)(C)C2`, the IC90 was more than 8.56 µM. In addition, the IC50 (PBLUC_HILL_SLOPE 1.36, PBLUC_R_SQUARED 0.0849, read-out: LUCIFERASE INFECTION ASSAY - IC50) is more than 8.56 µM.

Source of the values: ChEMBL document CHEMBL4483862, “Open-source discovery of chemical leads for next-generation chemoprotective antimalarials” (2018).
